How the values were obtained:
Test in all cases: relative viability (nuclei count vs DMSO), 5 days (fraction); higher = more cells survive
[1] = compound: CNC(=O)c1ccccc1Sc1ccc2c(/C=C/c3ccccn3)n[nH]c2c1 [Axitinib] + COc1cccc2cc(-c3nc([C@H]4CC[C@H](C(=O)O)CC4)n4ncnc(N)c34)[nH]c12 [OSI-027] (partner 0.5 µM)
How it was run: (§1)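 Nuclei were stained with Hoechst during a one-step fixation (final 0.05% Triton X-100, 1% formaldehyde, 1 ug/ml Hoechst) carried out 5 days after dosing, then counted on 4× images. The cells, lung cancer lines in 1536-well plates, had been dosed by pin tool the day after seeding with one drug alone or a fixed anchor-drug dose plus five library-drug doses (not always all listed) in √10 steps. Relative viability is the nuclei count in treated wells divided by that in vehicle wells, and each value is the median of duplicate plates.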

[2] = compound: Nc1nc(Nc2ccc3c(c2)CC[C@@H](N2CCCC2)CC3)nn1-c1cc2c(nn1)-c1ccccc1CCC2 [Bemcentinib] + C[C@]1(O)C[C@@H](c2nc(-c3ccc4ccc(-c5ccccc5)nc4c3)c3c(N)nccn32)C1 [Linsitinib] (partner 1 µM)
How it was run: as §1

[3] = compound: CC1=CC=C(C=C1)C(=O)CN2C3=C(CCCC3)SC2=N [Pifithrin_alpha] + CC1(C)CCC(c2ccc(Cl)cc2)=C(CN2CCN(c3ccc(C(=O)NS(=O)(=O)c4ccc(N[C@H](CCN5CCOCC5)CSc5ccccc5)c(S(=O)(=O)C(F)(F)F)c4)cc3)CC2)C1 [Navitoclax] (partner 0.5 µM)
How it was run: as §1

[4] = compound: Nc1nc(Nc2ccc3c(c2)CC[C@@H](N2CCCC2)CC3)nn1-c1cc2c(nn1)-c1ccccc1CCC2 [Bemcentinib] + CC(=O)Nc1cccc(-n2c(=O)n(C3CC3)c(=O)c3c(Nc4ccc(I)cc4F)n(C)c(=O)c(C)c32)c1 [Trametinib] (partner 0.02 µM)
How it was run: as §1

| Cell Line | relative viability ([1]; first compound 0.005 µM) | relative viability ([1]; first compound 0.01581 µM) | relative viability ([1]; first compound 0.05 µM) | relative viability ([1]; first compound 0.1581 µM) | relative viability ([1]; first compound 0.5 µM) | relative viability ([2]; first compound 0.04 µM) | relative viability ([2]; first compound 0.1265 µM) | relative viability ([2]; first compound 0.4 µM) | relative viability ([2]; first compound 1.265 µM) | relative viability ([2]; first compound 4 µM) | relative viability ([3]; first compound 1 µM) | relative viability ([3]; first compound 3.162 µM) | relative viability ([3]; first compound 10 µM) | relative viability ([3]; first compound 31.62 µM) | relative viability ([3]; first compound 100 µM) | relative viability ([4]; first compound 0.04 µM) | relative viability ([4]; first compound 0.1265 µM) | relative viability ([4]; first compound 0.4 µM) | relative viability ([4]; first compound 1.265 µM) | relative viability ([4]; first compound 4 µM) |
| --- | --- | --- | --- | --- | --- | --- | --- | --- | --- | --- | --- | --- | --- | --- | --- | --- | --- | --- | --- | --- |
| NCI-H2009 | 0.699 | 0.684 | 0.646 | 0.697 | 0.887 | 1.21 | 1.25 | 1.14 | 1.17 | 1.21 | 1.24 | 1.1 | 1.05 | 0.784 | 0.957 | 0.231 | 0.321 | 0.232 | 0.273 | 0.268 |
| NCI-H1944 | 0.389 | 0.404 | 0.42 | 0.424 | 0.392 | 1.25 | 1.08 | 1.28 | 1.16 | 1.1 | 1.11 | 1.04 | 0.946 | – | 1.02 | 0.399 | 0.43 | 0.463 | 0.431 | 0.468 |
| SW 1573 | 0.592 | 0.592 | 0.68 | 0.508 | 0.724 | 0.884 | 0.753 | 0.855 | 0.966 | 0.835 | 1.06 | 1.03 | 1.18 | 0.923 | 0.893 | 0.521 | 0.488 | 0.658 | 0.572 | 0.654 |
| NCI-H1975 | 0.813 | 0.744 | 0.714 | 0.673 | 0.711 | 0.981 | 1.03 | 1.03 | 1.06 | 1.02 | 0.918 | 0.848 | 0.621 | 0.616 | 0.686 | 0.282 | 0.399 | 0.365 | 0.36 | 0.344 |
| NCI-H661 | 0.741 | 0.754 | 0.721 | 0.617 | 0.855 | 0.587 | 0.53 | 0.609 | 0.656 | 0.548 | – | – | – | – | – | 0.62 | 0.678 | 0.604 | 0.553 | 0.595 |
| UMC-11 | 0.494 | 0.504 | 0.438 | 0.498 | 0.521 | 1.01 | 1.08 | 1.06 | 0.978 | 0.977 | 0.288 | 0.312 | 0.312 | 0.337 | 0.331 | 0.558 | 0.876 | 0.712 | 0.779 | 0.744 |
| NCI-H520 | 0.234 | 0.218 | 0.216 | – | 0.24 | 0.85 | 0.982 | 1.08 | 1.01 | 1.18 | 1.11 | 1.32 | 1.16 | 0.94 | 1.12 | 0.723 | 0.859 | 0.706 | 0.713 | 0.733 |
| COR-L23 | 0.88 | 0.775 | 0.804 | 0.75 | 1.19 | 1.04 | 0.935 | 1.2 | 1.17 | 0.844 | 1.09 | 1.09 | 0.974 | – | 1.19 | 0.569 | 0.696 | 0.66 | 0.641 | 0.658 |
| NCI-H1650 | 0.706 | 0.513 | 0.721 | 0.64 | 1.01 | – | – | – | – | – | 1.31 | 1.15 | 0.973 | 0.675 | 0.865 | 0.483 | 0.684 | 0.617 | 0.594 | 0.459 |
| NCI-H1648 | 0.258 | 0.238 | – | 0.245 | 0.249 | – | – | – | – | – | – | – | – | – | – | 0.636 | 0.455 | 0.477 | 0.481 | 0.408 |
| NCI-H1563 | 0.708 | 0.705 | 0.742 | 0.705 | 0.704 | 1.24 | 1.15 | 1.21 | 1.15 | 1.19 | – | – | – | – | – | – | – | – | – | – |
| NCI-H2170 | 0.721 | 0.686 | 0.703 | 0.715 | 0.631 | – | – | – | – | – | 0.557 | 0.512 | 0.576 | 0.494 | 0.535 | 0.94 | 0.967 | 0.92 | 0.968 | 0.936 |
| SW 900 | 0.646 | 0.536 | 0.562 | 0.564 | 0.699 | – | – | – | – | – | – | – | – | – | – | 0.56 | 0.947 | 0.927 | 0.953 | 0.933 |
| A549 | – | – | – | – | – | 0.655 | 0.657 | 0.659 | 0.677 | 0.622 | 1.37 | 1.26 | 1.14 | 0.985 | 1.29 | – | – | – | – | – |
| NCI-H1623 | 0.455 | 0.398 | 0.424 | 0.436 | 0.454 | – | – | – | – | – | – | – | – | – | – | – | – | – | – | – |
| NCI-H2342 | 0.571 | 0.614 | 0.663 | 0.633 | 0.638 | – | – | – | – | – | – | – | – | – | – | 0.897 | 0.904 | 0.895 | 0.988 | 0.88 |
| NCI-H1299 | – | – | – | – | – | 1.01 | 1.04 | 0.985 | 1.07 | 1.09 | 1.07 | 1.08 | 1 | 0.952 | 1 | – | – | – | – | – |
| NCI-H522 | 0.765 | 0.665 | 0.572 | 0.857 | 0.647 | – | – | – | – | – | – | – | – | – | – | 0.75 | 0.742 | 0.754 | 0.771 | 0.788 |
| ChaGo-K-1 | 0.547 | 0.505 | 0.67 | 0.554 | 0.591 | – | – | – | – | – | 0.873 | 0.999 | 0.888 | 0.734 | 0.891 | 0.911 | 0.945 | 0.939 | 0.877 | 0.902 |
| EBC-1 | – | – | – | – | – | 0.926 | 0.928 | 0.907 | 1.19 | 1.18 | 0.386 | 0.318 | 0.29 | 0.221 | 0.224 | – | – | – | – | – |
| Calu-6 | – | – | – | – | – | 0.946 | 1.05 | 1.04 | 0.983 | 0.944 | 0.976 | 0.741 | 0.781 | 0.508 | 0.704 | – | – | – | – | – |
| NCI-H1703 | – | – | – | – | – | 0.675 | 0.776 | 0.798 | 0.638 | 0.746 | 1.34 | 0.99 | 1.1 | 0.674 | 1.12 | – | – | – | – | – |

From the supplement of paper PMC10307832
